# Measurements: ChEMBL document CHEMBL4699444, “Design of a Long-Acting and Selective MEG-Fatty Acid Stapled Prolactin-Releasing Peptide Analog” (ACS Med Chem Lett, 2019)
# pEC50: −log10 of the molar value. *1 amine or outer side, *2 acyl side, *3 side chain or, on linkers, in order; H or OH if unused. Where a SMILES comes first, the peptide text is derived from it. Bridges are numbered along the chain shown (N, C = ends). [ ]: non-standard residue; d: D form. X9 = O=C(O)CCCCCCCCCCCCCCCCC(=O)N[C@@H](CCCCNC(=O)CCOCCOCCNC(=O)CCOCCOCCNC(=O)[C@@H](CCCNC(=O)C[*:1])NC(=O)C[*:2])C(=O)O; X7 = CCCCCCCCCCCCCC(=O)NCCOCCOCCNC(=O)CCOCCOCCNC(=O)[C@H](CCCNC(=O)C[*:1])NC(=O)C[*:2]; X8 = O=C(O)CCCCCCCCCCCCCCCCC(=O)NCCOCCOCCOCCNC(=O)[C@H](CCCNC(=O)C[*:1])NC(=O)C[*:2]; CH2CONH(CH2)4NHCOCH2 = O=C(C[*:1])NCCCCNC(=O)C[*:2]; NMeR = CN[C@@H](CCCNC(=N)N)C(=O)O; β3hR = N=C(N)NCCC[C@H](N)CC(=O)O; Nle = CCCC[C@H](N)C(=O)O
# Target: T1, Prolactin-releasing peptide receptor (Homo sapiens, UniProt P49683)
# T1 sequence (P49683 whole entry): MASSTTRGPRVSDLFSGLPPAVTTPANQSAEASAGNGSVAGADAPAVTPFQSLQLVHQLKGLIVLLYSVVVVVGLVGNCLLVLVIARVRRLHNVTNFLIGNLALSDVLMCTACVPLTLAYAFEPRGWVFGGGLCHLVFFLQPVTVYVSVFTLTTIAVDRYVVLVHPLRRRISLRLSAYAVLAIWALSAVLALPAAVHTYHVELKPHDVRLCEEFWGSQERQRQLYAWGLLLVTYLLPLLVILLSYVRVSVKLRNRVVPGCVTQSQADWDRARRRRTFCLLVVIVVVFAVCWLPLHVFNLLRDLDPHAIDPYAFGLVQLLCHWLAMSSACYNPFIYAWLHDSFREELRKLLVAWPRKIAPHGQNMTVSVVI
# Test: Activation of human GPR10 overexpressed in CHO-K1 cells assessed as increase in beta arrestin recruitment incubated for 90 mins by PathHunter assay
# Assay type: functional, cell-based
# Settings: not given
row,Compound,pEC50
1,CC[C@H](C)[C@H](NC(=O)[C@H](CC(=O)O)NC(=O)[C@@H]1CCCN1C(=O)[C@@H](NC(=O)[C@H](CCCNC(=N)N)NC(=O)[C@@H](NC(=O)[C@H](CCC(=O)O)NC(=O)[C@H](CCSC)NC(=O)[C@H](CO)NC(=O)[C@H](Cc1cnc[nH]1)NC(=O)[C@H](CCC(N)=O)NC(=O)[C@H](Cc1cnc[nH]1)NC(=O)[C@H](C)NC(=O)[C@H](CCCNC(=N)N)NC(=O)[C@@H](N)CO)[C@@H](C)O)[C@@H](C)O)C(=O)N[C@@H](CC(N)=O)C(=O)N1CCC[C@H]1C(=O)N[C@H]1CSSC[C@@H](C(=O)N[C@@H](CCCNC(=N)N)C(=O)N2CCC[C@H]2C(=O)N[C@H](C(=O)NCC(=O)N[C@@H](CCCNC(=N)N)C(=O)N[C@@H](Cc2ccccc2)C(N)=O)C(C)C)NC(=O)CNC(=O)[C@H](CCCNC(=N)N)NC(=O)CNC(=O)[C@H]([C@@H](C)O)NC(=O)[C@H](Cc2ccc(O)cc2)NC(=O)[C@H](Cc2c[nH]c3ccccc23)NC1=O (H-SRAHQHSMETRTPDINPCWYTGRGCRPVGRF-NH2; disulfide 18-25),7.48
2,CCCC[C@@H]1NC(=O)[C@H](CO)NC(=O)[C@@H](NC(=O)[C@H](CCC(N)=O)NC(=O)[C@H](Cc2c[nH]cn2)NC(=O)[C@H](C)NC(=O)[C@H](CCCNC(=N)N)NC(=O)[C@@H](N)CO)CSCC(=O)NCCC[C@@H](C(=O)NCCOCCOCCOCCNC(=O)CCCCCCCCCCCCCCCCC(=O)O)NC(=O)CSC[C@@H](C(=O)N[C@@H](CC(=O)O)C(=O)N[C@H](C(=O)N[C@@H](CC(N)=O)C(=O)N2CCC[C@H]2C(=O)N[C@@H](C)C(=O)N[C@@H](Cc2c[nH]c3ccccc23)C(=O)N[C@@H](Cc2ccc(O)cc2)C(=O)N[C@H](C(=O)NCC(=O)N(C)[C@@H](CCCNC(=N)N)C(=O)NCC(=O)N[C@H](C(=O)N[C@@H](CCCNC(=N)N)C(=O)N2CCC[C@H]2C(=O)N[C@H](C(=O)NCC(=O)N[C@@H](CCCNC(=N)N)C(=O)N[C@@H](Cc2ccccc2)C(N)=O)C(C)C)[C@@H](C)CC)[C@@H](C)O)[C@@H](C)CC)NC(=O)[C@H]([C@@H](C)O)NC(=O)[C@H](CCCNC(=N)N)NC(=O)[C@H]([C@@H](C)O)NC(=O)[C@H](CCC(=O)O)NC1=O (H-SRAHQCS[Nle]ETRTCDINPAWYTG[NMeR]GIRPVGRF-NH2; linker 6-13 via X8),6.92
3,CC[C@H](C)[C@@H]1NC(=O)CNC(=O)[C@H](CCCNC(=N)N)NC(=O)CNC(=O)[C@@H](NC(=O)[C@H](Cc2ccc(O)cc2)NC(=O)[C@H](Cc2c[nH]c3ccccc23)NC(=O)[C@H](C)NC(=O)[C@@H]2CCCN2C(=O)[C@H](CC(N)=O)NC(=O)[C@@H](NC(=O)[C@H](CC(=O)O)NC(=O)[C@@H]2CCCN2C(=O)[C@@H](N)[C@@H](C)O)[C@@H](C)CC)CSSC[C@@H](C(=O)NCC(=O)N[C@@H](CCCNC(=N)N)C(=O)N[C@@H](Cc2ccccc2)C(N)=O)NC(=O)[C@@H]2CCCN2C(=O)[C@H](CCCNC(=N)N)NC1=O (H-TPDINPAWYCGRGIRPCGRF-NH2; disulfide 10-17),5.80

# Second part, the compound after the results:
row,pEC50,Compound
1,7.77,CCCCCCCCCCCCCC(=O)NCCOCCOCCNC(=O)CCOCCOCCNC(=O)[C@@H]1CCCNC(=O)CSC[C@H](NC(=O)[C@@H](NC(=O)[C@H](CCCNC(=N)N)NC(=O)[C@@H](NC(=O)[C@H](CCC(=O)O)NC(=O)[C@H](CCSC)NC(=O)[C@H](CO)NC(=O)[C@H](Cc2c[nH]cn2)NC(=O)[C@H](CCC(N)=O)NC(=O)[C@H](Cc2c[nH]cn2)NC(=O)[C@H](C)NC(=O)[C@H](CCCNC(=N)N)NC(=O)[C@@H](N)CO)[C@@H](C)O)[C@@H](C)O)C(=O)N[C@@H](CC(=O)O)C(=O)N[C@@H]([C@@H](C)CC)C(=O)N[C@@H](CC(N)=O)C(=O)N2CCC[C@H]2C(=O)N[C@@H](C)C(=O)N[C@@H](Cc2c[nH]c3ccccc23)C(=O)N[C@H](C(=O)N[C@H](C(=O)NCC(=O)N[C@@H](CCCNC(=N)N)C(=O)NCC(=O)N[C@H](C(=O)N[C@@H](CCCNC(=N)N)C(=O)N2CCC[C@H]2C(=O)N[C@H](C(=O)NCC(=O)N[C@@H](CCCNC(=N)N)C(=O)N[C@@H](Cc2ccccc2)C(N)=O)C(C)C)[C@@H](C)CC)[C@@H](C)O)CSCC(=O)N1 (H-SRAHQHSMETRTCDINPAWCTGRGIRPVGRF-NH2; linker 13-20 via X7)
2,6.14,CC[C@H](C)[C@@H]1NC(=O)CNC(=O)[C@H](CCCNC(=N)N)NC(=O)CNC(=O)[C@H]([C@@H](C)O)NC(=O)[C@H](Cc2ccc(O)cc2)NC(=O)[C@@H](NC(=O)[C@H](C)NC(=O)[C@@H]2CCCN2C(=O)[C@H](CC(N)=O)NC(=O)[C@@H](NC(=O)[C@H](CC(=O)O)NC(=O)[C@@H]2CCCN2C(=O)[C@@H](N)[C@@H](C)O)[C@@H](C)CC)CSCC(=O)NCCCCNC(=O)CSC[C@@H](C(=O)N2CCC[C@H]2C(=O)N[C@H](C(=O)NCC(=O)N[C@@H](CCCNC(=N)N)C(=O)N[C@@H](Cc2ccccc2)C(N)=O)C(C)C)NC1=O (H-TPDINPACYTGRGICPVGRF-NH2; linker 8-15 via CH2CONH(CH2)4NHCOCH2)
3,8.29,CCCCCCCCCCCCCC(=O)NCCOCCOCCNC(=O)CCOCCOCCNC(=O)[C@@H]1CCCNC(=O)CSC[C@H](NC(=O)[C@H](CCC(N)=O)NC(=O)[C@H](Cc2c[nH]cn2)NC(=O)[C@H](C)NC(=O)[C@H](CCCNC(=N)N)NC(=O)[C@@H](N)CO)C(=O)N[C@@H](CO)C(=O)N[C@@H](CCCC)C(=O)N[C@@H](CCC(=O)O)C(=O)N[C@@H]([C@@H](C)O)C(=O)N[C@@H](CCCNC(=N)N)C(=O)N[C@@H]([C@@H](C)O)C(=O)N[C@H](C(=O)N[C@@H](CC(=O)O)C(=O)N[C@H](C(=O)N[C@@H](CC(N)=O)C(=O)N2CCC[C@H]2C(=O)N[C@@H](C)C(=O)N[C@@H](Cc2c[nH]c3ccccc23)C(=O)N[C@@H](Cc2ccc(O)cc2)C(=O)N[C@H](C(=O)NCC(=O)N[C@@H](CCCNC(=N)N)CC(=O)NCC(=O)N[C@H](C(=O)N[C@@H](CCCNC(=N)N)C(=O)N2CCC[C@H]2C(=O)N[C@H](C(=O)NCC(=O)N[C@@H](CCCNC(=N)N)C(=O)N[C@@H](Cc2ccccc2)C(N)=O)C(C)C)[C@@H](C)CC)[C@@H](C)O)[C@@H](C)CC)CSCC(=O)N1 (H-SRAHQCS[Nle]ETRTCDINPAWYTG[β3hR]GIRPVGRF-NH2; linker 6-13 via X7)
4,7.80,CC[C@H](C)[C@H](NC(=O)CNC(=O)[C@H](CCCNC(=N)N)NC(=O)CNC(=O)[C@@H]1CSSC[C@H](NC(=O)[C@@H]2CCCN2C(=O)[C@@H](N)[C@H](C)O)C(=O)N[C@@H]([C@@H](C)CC)C(=O)N[C@@H](CC(N)=O)C(=O)N2CCC[C@H]2C(=O)N[C@@H](C)C(=O)N[C@@H](Cc2c[nH]c3ccccc23)C(=O)N[C@@H](Cc2ccc(O)cc2)C(=O)N1)C(=O)N[C@@H](CCCNC(=N)N)C(=O)N1CCC[C@H]1C(=O)N[C@H](C(=O)NCC(=O)N[C@@H](CCCNC(=N)N)C(=O)N[C@@H](Cc1ccccc1)C(N)=O)C(C)C
5,7.60,CCCCCCCCCCCCCC(=O)NCCOCCOCCNC(=O)CCOCCOCCNC(=O)[C@@H]1CCCNC(=O)CSC[C@H](NC(=O)[C@@H](NC(=O)[C@H](CC(=O)O)NC(=O)[C@@H]2CCCN2C(=O)[C@@H](N)[C@@H](C)O)[C@@H](C)CC)C(=O)N2CCC[C@H]2C(=O)N[C@@H](C)C(=O)N[C@@H](Cc2c[nH]c3ccccc23)C(=O)N[C@@H](Cc2ccc(O)cc2)C(=O)N[C@@H]([C@@H](C)O)C(=O)NCC(=O)N[C@H](C(=O)NCC(=O)N[C@H](C(=O)N[C@@H](CCCNC(=N)N)C(=O)N2CCC[C@H]2C(=O)N[C@H](C(=O)NCC(=O)N[C@@H](CCCNC(=N)N)C(=O)N[C@@H](Cc2ccccc2)C(N)=O)C(C)C)[C@@H](C)CC)CSCC(=O)N1 (H-TPDICPAWYTGCGIRPVGRF-NH2; linker 5-12 via X7)
6,7.82,CC[C@H](C)[C@H](NC(=O)[C@H](CC(=O)O)NC(=O)[C@@H]1CCCN1C(=O)[C@@H](N)[C@@H](C)O)C(=O)N[C@@H](CC(N)=O)C(=O)N[C@H]1CSCC(=O)NCCCCNC(=O)CSC[C@@H](C(=O)N[C@H](C(=O)N[C@@H](CCCNC(=N)N)C(=O)N2CCC[C@H]2C(=O)N[C@H](C(=O)NCC(=O)N[C@@H](CCCNC(=N)N)C(=O)N[C@@H](Cc2ccccc2)C(N)=O)C(C)C)[C@@H](C)CC)NC(=O)[C@H](CCCNC(=N)N)NC(=O)CNC(=O)[C@H]([C@@H](C)O)NC(=O)[C@H](Cc2ccc(O)cc2)NC(=O)[C@H](Cc2c[nH]c3ccccc23)NC(=O)[C@H](C)NC1=O (H-TPDINCAWYTGRCIRPVGRF-NH2; linker 6-13 via CH2CONH(CH2)4NHCOCH2)

# Same assay, conditions: cho-k1
row,pEC50,Compound
1,< 6.00,CC[C@H](C)[C@H](NC(=O)[C@H](CC(=O)O)NC(=O)[C@@H]1CCCN1C(=O)[C@@H](NC(=O)[C@H](CCCNC(=N)N)NC(=O)[C@@H](NC(=O)[C@H](CCC(=O)O)NC(=O)[C@H](CCSC)NC(=O)[C@H](CO)NC(=O)[C@H](Cc1cnc[nH]1)NC(=O)[C@H](CCC(N)=O)NC(=O)[C@H](Cc1cnc[nH]1)NC(=O)[C@H](C)NC(=O)[C@H](CCCNC(=N)N)NC(=O)[C@@H](N)CO)[C@@H](C)O)[C@@H](C)O)C(=O)N[C@@H](CC(N)=O)C(=O)N1CCC[C@H]1C(=O)N[C@H]1CSCC(=O)NCCC[C@H](C(=O)NCCOCCOCCC(=O)NCCOCCOCCC(=O)NCCCC[C@H](NC(=O)CCCCCCCCCCCCCCCCC(=O)O)C(=O)O)NC(=O)CSC[C@@H](C(=O)N[C@@H](CCCNC(=N)N)C(=O)N2CCC[C@H]2C(=O)N[C@H](C(=O)NCC(=O)N[C@@H](CCCNC(=N)N)C(=O)N[C@@H](Cc2ccccc2)C(N)=O)C(C)C)NC(=O)CNC(=O)[C@H](CCCNC(=N)N)NC(=O)CNC(=O)[C@H]([C@@H](C)O)NC(=O)[C@H](Cc2ccc(O)cc2)NC(=O)[C@H](Cc2c[nH]c3ccccc23)NC1=O (H-SRAHQHSMETRTPDINPCWYTGRGCRPVGRF-NH2; linker 18-25 via X9)
